Here are results for five compounds from patent US11458188B2, “ABC transporter peptide inhibitor XH-14C and application thereof” (HUNAN UNIVERSITY OF SCIENCE AND ENGINEERING, priority 2020, dated 2022).

Test [1] deals with transfected ABCB1-overexpressing cell line HEK293/ABCB1. Briefly: MDR reversal study (MTT), transfected ABCB1-overexpressing cell line. Conditions: Table 4, IC50 divided by IC50 in HEK293/pcDNA3.1.
Procedure: (§1) The cytotoxicity of the peptide in different cell lines was measured by modified MTT assay. 5,000 cells per well were seeded in a 96-well microplate and cultured overnight. Peptides and positive control were added in a designated concentration gradient. The plate was incubated for 68 h, and then added with 20 μL of MTT solution (4 mg/mL) per well and incubated for another 4 h. The medium was pipetted, to which 100 μL of DMSO was added to dissolve the formaldehyde crystals. The absorbance was measured at 570 nm with a UV/Vis microplate spectrophotometer.
Test [2] relates to parental cancer cell line KB-3-1. The experiment in a line: MDR reversal study (MTT), parental cancer cell line. The test is classed as cell-based. Conditions: for IC50: read-out: IC50, chemotherapeutic alone.
Procedure: as §1
Test [3] has as its system transfected empty vector cell line HEK293/pcDNA3.1. Briefly: MDR reversal study (MTT), transfected empty vector cell line. The test is classed as cell-based. Conditions: for IC50: read-out: IC50, chemotherapeutic alone.
Procedure: as §1
The test system of test [4] is drug-induced ABCB1-overexpressing cancer cell line KB-C2. The experiment in a line: MDR reversal study (MTT), drug-induced ABCB1-overexpressing cell line. Conditions: Table 3, IC50 divided by IC50 in KB-3-1.
Procedure: as §1
Test [5] deals with transfected ABCC1-overexpressing cell line HEK293/ABCC1. Briefly: MDR reversal study (MTT), transfected ABCC1-overexpressing cell line. The class given is cell-based. Conditions: for IC50: Table 6, no reversal agent, read-out: IC50, chemotherapeutic alone.
Test [6] deals with drug-induced ABCC1-overexpressing cancer cell line KB-CV60. Briefly: MDR reversal study (MTT), drug-induced ABCC1-overexpressing cell line. The test is classed as cell-based. Conditions: for IC50: Table 5, no reversal agent, read-out: IC50, chemotherapeutic alone.
A further test has as its system parental cells (KB-3-1). The experiment in a line: Modified MTT cytotoxicity assay, parental cells. Conditions: Homo sapiens, KB 3-1, 72 h, read-out: IC50 (cytotoxicity), KB-3-1. A general note: Tetrazolium assays rely on reduction of a dye to a coloured formazan, in cell work by metabolically active cells.
The subject of test [7] is ABCB1-overexpressing cancer cells (KB-C2). Briefly: Modified MTT cytotoxicity assay, ABCB1-overexpressing cells. Conditions: Homo sapiens, KB-C2, 72 h, read-out: IC50 (cytotoxicity), KB-C2.
Procedure: as §1
In test [8] the test system is ABCC1-overexpressing cancer cells (KB-CV60). The experiment in a line: Modified MTT cytotoxicity assay, ABCC1-overexpressing cells. Conditions: KB-CV60, 72 h, read-out: IC50 (cytotoxicity), KB-CV60.

Read-outs that look alike come from different tables or passages of the source.

The IC50 is the point on the concentration scale where inhibition reaches its midpoint.

Consider `COc1cccc2c1C(=O)c1c(O)c3c(c(O)c1C2=O)C[C@@](O)(C(=O)CO)C[C@@H]3O[C@H]1C[C@H](N)[C@H](O)[C@H](C)O1` [Adriamycin], for which the “RF (resistance fold), chemotherapeutic alone” value stood at 25.29 in test [1] and 1.00 in [3] (Table 4, no reversal agent). In addition, the “RF (resistant fold), chemotherapeutic alone” value came out at 1.00 in test [2] (Table 3, no reversal agent) and 58.84 in test [4].
Consider `N.N.[Cl][Pt][Cl]` [Cisplatin], for which the half-maximal inhibitory concentration (IC50) in test [5] came out at 2240 nM; in test [6], 2230 nM; in test [2] (Table 3, no reversal agent), 1790 nM; in test [2] (Table 5, no reversal agent) it was 1790 nM; in [3] (Table 4, no reversal agent), 2210 nM; in test [3] (Table 6, no reversal agent) it was 2210 nM.
Regarding `CN(C)C(=O)CCSC(SCCC(=O)O)c1cccc(/C=C/c2ccc3ccc(Cl)cc3n2)c1` (centres unmarked) [MK571], in [3] (Table 6, MK571 5 μM), the “RF of Cisplatin + MK571” value is 0.99 and the “RF of Vincristine + MK571” value is given as 1.02.
Regarding `CC(=O)O[C@H]1C(=O)[C@@]2(C)[C@H]([C@H](OC(=O)c3ccccc3)[C@]3(O)C[C@H](OC(=O)[C@H](O)[C@@H](NC(=O)c4ccccc4)c4ccccc4)C(C)=C1C3(C)C)[C@]1(OC(C)=O)CO[C@@H]1C[C@@H]2O` [Paclitaxel], the “RF (resistant fold), chemotherapeutic alone” value in test [2] (Table 3, no reversal agent) was determined as 1.00. Besides, the half-inhibitory concentration (IC50) with parental cells (KB-3-1) stood at 30 nM; in [7], 1770 nM.
With `CC[C@]1(O)C[C@H]2CN(CCc3c([nH]c4ccccc34)[C@@](C(=O)OC)(c3cc4c(cc3OC)N(C=O)[C@H]3[C@@](O)(C(=O)OC)[C@H](OC(C)=O)[C@]5(CC)C=CCN6CC[C@]43[C@@H]65)C2)C1` [Vincristine], the “RF (resistance fold), chemotherapeutic alone” value is reported as 19.79 in test [5] (Table 6, IC50 divided by IC50 in HEK293/pcDNA3.1); 169.05 in test [6] (Table 5, IC50 divided by IC50 in KB-3-1); 1.00 in test [2] (Table 5, no reversal agent); 1.00 in test [3] (Table 6, no reversal agent). Moreover, the half-inhibitory concentration (IC50) in test [5] came to 2710 nM; in [6], 16100 nM; in [8], 16100 nM; in the test on parental cells (KB-3-1), 95 nM.
